The values below come from patent US20250230138A1, “COMPOUNDS HAVING A T-STRUCTURE FORMED BY AT LEAST FOUR CYCLES FOR USE IN THE TREATMENT OF CANCER AND OTHER INDICATIONS” (TheRas, Inc., priority 2022, published 2025).

Assay [1] has as its target KRAS-PI3Kα interaction (KRAS-Q25A binding to avi-tagged full length PI3Kα) (Homo sapiens (Human), UniProt P42336). Kind of assay: Disrupting KRAS-PI3Kα interaction by SPR inhibition assay. The following applies: KRAS-Q25A at 20 μM, 25° C. The method, then: SPR binding experiments were collected on a Biacore 8K Instrument (Cytiva). Neutravidin (Pierce) was amine coupled to the carboxymethylated dextran surface of a CM5 sensor chip (Cytiva) using standard amine coupling chemistry. The CM5 chip surface was first activated with 0.1 M N-hydroxy succinimide and 0.4 M N-ethyl-N′-(3-dimethyl aminopropyl) carbodiimide at a flow rate of 20 μL/min using 20 mM HEPES pH 7.4, 150 mM NaCl as the running buffer. Next, neutravidin was diluted to 20 μg/mL in 10 mM sodium acetate (pH 4.5) and injected on all flow cells until a density of approximately 10,000 response units (RU) was immobilized. Activated amine groups were quenched with an injection of 1 M ethanolamine (pH 8.0). 300-500 RU of avi-tagged full length PI3Kα was captured on all flow cells in 20 mM HEPES pH 7.4, 150 mM NaCl, 5 mM MgCl2, 1 mM TCEP, 0.05% tween 20, 5% DMSO buffer. KRAS-Q25A at 20 μM was mixed with 8 concentrations of compound (50 nM-100 μM) and injected over the full-length PI3Kα at 30 μL/min and 25° C. Steady-state levels of KRAS binding were recorded and fit with a 4-parameter inhibition model to determine the IC50 values.

The target in assay [2] is Cys242 in human PIK3CA (157-299) (Homo sapiens (Human), UniProt P42336). Kind of assay: Covalent modification assay using MALDI-TOF MS. It is filed as biochemical. The following applies: 4 h reaction time point. The method, boiled down:
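Covalent adduct formation was read by linear-mode MALDI-TOF with sinapinic acid matrix, reported as modified-protein peak height divided by total protein peak heights. Reactions held PIK3CA (157-299) at 1 or 3.33 μM in HEPES/NaCl/MgCl2 buffer, pH 7.3, sampled after 15 min to 4 h at room temperature.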

In the next assay the test system is pAKT in BT474 cells. Kind of assay: Cell-based pAKT HTRF assay in BT474 cells. The following applies: BT474 cells, 4 hr incubation, read-out: pAKT inhibition IC50 in BT474 cells. The method, boiled down:
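pAKT was measured by HTRF after a 4 hr compound exposure in BT474 cells (DMEM, 10% FBS, 0.25% DMSO), using 9 concentrations from 3 μM in 3-fold steps. Cell lysates were incubated with the Eu cryptate/d2 antibody pair at room temperature for 4 to 24 h. The plate was then read at 320 nm excitation and 615 nm emission.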

[3] abbreviates: 3.33 μM protein target, 1:7.5 protein to compound ratio (compounds 1-852).
The mark [4] stands for this setting: Homo sapiens, BT-474, Compounds 10-999.
Where [5] appears, read: 1 μM protein target, 1:5 protein to compound ratio (compounds 853-1279).

Like-named read-outs stand apart in the source and are kept apart here. Where only a bound is given, the exact number is not on record here.

Chain of KRAS-PI3Kα interaction (KRAS-Q25A binding to avi-tagged full length PI3Kα) (P42336 whole entry, looked up, stated change not applied): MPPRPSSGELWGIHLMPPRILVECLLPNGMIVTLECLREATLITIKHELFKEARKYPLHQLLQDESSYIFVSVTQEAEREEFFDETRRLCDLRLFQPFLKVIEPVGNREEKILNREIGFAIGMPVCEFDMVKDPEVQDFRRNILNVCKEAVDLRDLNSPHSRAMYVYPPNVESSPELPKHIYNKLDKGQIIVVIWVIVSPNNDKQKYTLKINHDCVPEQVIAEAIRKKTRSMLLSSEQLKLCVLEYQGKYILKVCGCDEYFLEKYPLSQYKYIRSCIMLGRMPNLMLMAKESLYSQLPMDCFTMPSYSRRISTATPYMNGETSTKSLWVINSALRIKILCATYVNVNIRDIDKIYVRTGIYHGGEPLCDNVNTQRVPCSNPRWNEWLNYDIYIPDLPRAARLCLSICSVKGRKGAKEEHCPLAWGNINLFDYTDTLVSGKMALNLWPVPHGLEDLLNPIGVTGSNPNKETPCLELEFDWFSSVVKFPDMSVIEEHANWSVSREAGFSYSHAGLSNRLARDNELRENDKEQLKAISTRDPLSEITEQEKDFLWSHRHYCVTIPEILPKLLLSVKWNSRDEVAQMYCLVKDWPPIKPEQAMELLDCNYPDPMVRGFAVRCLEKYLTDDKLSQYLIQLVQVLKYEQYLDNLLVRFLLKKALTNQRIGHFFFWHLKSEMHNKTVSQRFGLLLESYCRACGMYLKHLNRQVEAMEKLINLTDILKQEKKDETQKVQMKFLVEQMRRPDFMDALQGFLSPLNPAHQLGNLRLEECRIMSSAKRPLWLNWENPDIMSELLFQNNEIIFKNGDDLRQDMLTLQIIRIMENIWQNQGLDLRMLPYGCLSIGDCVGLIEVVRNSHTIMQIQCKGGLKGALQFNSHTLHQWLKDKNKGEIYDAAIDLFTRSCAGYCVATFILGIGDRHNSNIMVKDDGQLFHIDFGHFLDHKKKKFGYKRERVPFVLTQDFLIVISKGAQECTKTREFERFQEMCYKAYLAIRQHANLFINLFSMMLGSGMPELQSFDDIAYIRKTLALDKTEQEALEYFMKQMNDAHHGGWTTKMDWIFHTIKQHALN
Chain of KRAS-PI3Kα interaction (KRAS-Q25A binding to avi-tagged full length PI3Kα) (P27986 whole entry partner, looked up): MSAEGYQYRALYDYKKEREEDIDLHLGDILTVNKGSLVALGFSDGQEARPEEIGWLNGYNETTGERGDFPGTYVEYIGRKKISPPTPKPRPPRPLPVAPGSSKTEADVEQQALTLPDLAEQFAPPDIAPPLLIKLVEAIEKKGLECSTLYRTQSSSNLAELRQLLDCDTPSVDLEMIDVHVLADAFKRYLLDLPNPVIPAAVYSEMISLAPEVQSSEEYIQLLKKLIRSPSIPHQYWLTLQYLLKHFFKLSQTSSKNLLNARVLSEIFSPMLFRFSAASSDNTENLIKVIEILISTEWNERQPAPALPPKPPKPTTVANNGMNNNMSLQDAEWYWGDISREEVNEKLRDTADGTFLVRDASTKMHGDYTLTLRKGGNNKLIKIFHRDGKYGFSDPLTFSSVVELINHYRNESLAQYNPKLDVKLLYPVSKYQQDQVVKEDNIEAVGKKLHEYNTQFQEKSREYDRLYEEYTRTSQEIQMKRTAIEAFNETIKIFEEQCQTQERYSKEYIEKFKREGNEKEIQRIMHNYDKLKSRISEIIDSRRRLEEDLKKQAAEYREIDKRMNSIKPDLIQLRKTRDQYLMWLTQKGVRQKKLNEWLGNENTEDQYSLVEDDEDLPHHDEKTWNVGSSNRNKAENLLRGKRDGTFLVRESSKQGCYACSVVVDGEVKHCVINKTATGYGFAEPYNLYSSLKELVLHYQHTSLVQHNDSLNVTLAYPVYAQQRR
Chain of Cys242 in human PIK3CA (157-299) (P42336 157-299): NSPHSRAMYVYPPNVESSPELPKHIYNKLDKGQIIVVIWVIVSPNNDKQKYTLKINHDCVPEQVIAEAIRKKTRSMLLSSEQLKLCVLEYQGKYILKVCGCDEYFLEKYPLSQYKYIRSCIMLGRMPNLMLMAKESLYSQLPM

In assay [1], `COCCOc1cc(F)ccc1-c1c(-c2ccc3cc[nH]c3c2)nc(-c2ccc3c(c2)CCNC3)c2ccsc12` [compound 45] returned a concentration for half-maximal inhibition (IC50) of 5 to 25 µM. Compound `C=CC(=O)n1cnc(-c2nc(-c3ccc4c(c3)CCNC4)c3ccsc3c2-c2ccc(F)cc2OCCOC)c1` [compound 35] showed an IC50 in assay [1] of 5 to 25 µM. Also, the “% of modification” value in assay [2] (setting [3]) was “D (percent of modification <25%)”. For the compound `COCCOc1ccccc1-c1c(-c2ccc(=O)n(C)c2)nc(-c2ccc3c(c2)CCNC3)c2c1CCC2` [compound 5], the IC50 in assay [1] was greater than 25 µM. Consider `C=CC(=O)N1CC[C@H](n2cc(-c3nc(-c4ccc5c(c4)CCNC5)c4ccsc4c3-c3ccc(F)cc3OCCOC)c(C)n2)C1` [compound 59], for which the IC50 in assay [1] is less than 5 µM; with pAKT in BT474 cells (Compounds 10-999), less than 0.1 µM. The “% of modification” value in assay [2] (setting [3]) is “A (percent of modification of PIK3CA protein ≥75%)”.

Consider `COCCOc1cc(F)ccc1-c1c(-c2cnn(C3CCN(C(=O)/C=C/CN(C)C)C3)c2)nc(-c2ccc3c(c2)CCNC3)c2ccsc12` (stereo not drawn) [compound 56], for which the IC50 in assay [1] fell in the range of 5 to 25 µM. For the same compound, the “% of modification” value in assay [2] (setting [3]) is reported as “B (50%<percent of modification <75%)”. In the case of `COCCOc1cc(F)ccc1-c1c(-c2cnn(CC(=O)N3CCCC3)c2)nc(-c2ccc3c(c2)CCNC3)c2ccsc12` [compound 25], in assay [1], the concentration for half-maximal inhibition (IC50) lay in the range of 5 to 25 µM. As for `COCCOc1cc(F)ccc1-c1c(-c2cnn(CCC(=O)NC(C)(C)C)c2)nc(-c2ccc3c(c2)CCNC3=O)c2ccsc12` [compound 37], in assay [1], the IC50 is 5 to 25 µM.

Take `COCCOc1cc(F)ccc1-c1c(-c2c[nH]cn2)nc(-c2ccc3c(c2)CCNC3)c2ccsc12` [compound 34]: the IC50 in assay [1] fell in the range of 5 to 25 µM.

Regarding `COCCOc1ccccc1-c1c(-c2cccc(C#N)c2)nc(-c2ccc3c(c2)CCNC3)c2c1CCC2` [compound 2], the IC50 in assay [1] is greater than 25 µM. With `COCCOc1cc(F)ccc1-c1c(-c2cccc(CNC(=O)C3CCCC3)c2)nc(-c2ccc3c(c2)CCNC3)c2ccsc12` [compound 27], the IC50 in assay [1] was less than 5 µM. In assay [1], `COCCOc1cc(F)ccc1-c1c(-c2cnn(CC(=O)NC(C)(C)C)c2)nc(-c2ccc3c(c2)CCNC3)c2ccsc12` [compound 24] returned an IC50 of less than 5 µM. In assay [1], `COCCOc1cc(F)ccc1-c1c(-c2cnn(CCNC(=O)C(C)C)c2)nc(-c2ccc3c(c2)CCNC3)c2ccsc12` [compound 21] came in with an IC50 of 5 to 25 µM. Regarding `COCCOc1cc(F)ccc1-c1c(-c2ccc3c(c2)CCN(C)C3)nc(-c2ccc3c(c2)CCNC3)c2ccsc12` [compound 229], the half-maximal inhibitory concentration (IC50) in assay [1] is less than 5 µM; in the assay with pAKT in BT474 cells (Compounds 10-999), greater than 3 µM. In the case of `COCCOc1cc(F)ccc1-c1c(-c2nc(CO)cs2)nc(-c2ccc3c(c2)CCNC3)c2ccsc12` [compound 39], the IC50 in assay [1] is 5 to 25 µM. Turning to `C=CC(=O)Nc1cccc(-c2nc(-c3ccc4c(c3)CCC(O)C4)c3ccsc3c2-c2ccc(F)cc2OCCOC)c1` (stereo not drawn) [compound 57], the IC50 in assay [1] is greater than 25 µM. Also, the “% of modification” value in assay [2] (setting [3]) was “B (50%<percent of modification <75%)”. For `C=CC(=O)NCCn1cc(-c2nc(-c3ccc4c(c3)CCNC4)c3ccsc3c2-c2ccc(F)cc2OCCOC)cn1` [compound 22], in that order: 5 to 25 µM and “B (50%<percent of modification <75%)”. Take `COCCOc1cc(F)ccc1-c1c(-c2ccc(=O)n(C(C)C)c2)nc(-c2ccc3c(c2)CCNC3)c2ccsc12` [compound 26]: in assay [1], the IC50 was less than 5 µM. On to `COCCOc1ccccc1-c1c(-c2ccccc2)nc(-c2ccc3c(c2)CCNC3)c2ccsc12` [Compound 4, 7-[2-(2-methoxyethoxy)phenyl]-6-phenyl-4-(1,2,3,4-tetrahydroisoquinolin-6-yl)thieno[3,2-c]pyridine], for which the half-maximal inhibitory concentration (IC50) in assay [1] lay in the range of 5 to 25 µM.

The compound `C=CC(=O)NCc1csc(-c2nc(-c3ccc4c(c3)CCNC4)c3ccsc3c2-c2ccc(F)cc2OCCOC)n1` [compound 38] displayed an IC50 in assay [1] of 5 to 25 µM. Moreover, the “% of modification” value in assay [2] (setting [3]) is reported as “B (50%<percent of modification <75%)”. Turning to `COCCOc1cc(F)ccc1-c1c(-c2nc3ccc(C(C)C)cc3[nH]2)nc(-c2ccc3c(c2)CCNC3)c2ccsc12` [compound 20], the IC50 in assay [1] was greater than 25 µM.

Consider `COCCOc1ccccc1-c1c(-c2ccccc2)nc(-c2ccc3c(c2)CCNC3)c2c1CCC2` [compound 3], for which the concentration for half-maximal inhibition (IC50) in assay [1] is greater than 25 µM. Turning to `C=CC(=O)N1Cc2cc(-c3nc(-c4cnc5c(c4)CN(C)C5=O)c4ccsc4c3-c3c(F)cc(F)cc3OCCOC)nn2C[C@H]1C` [Compound 504], the “% of modification” value in assay [2] (setting [3]) is given as “A (percent of modification of PIK3CA protein ≥75%)”. For the same compound, the 50% inhibitory concentration (IC50) in the assay with pAKT in BT474 cells (Compounds 10-999) was less than 0.1 µM.

Turning to `C=CC(=O)N1CCc2ncc(-c3nc(-c4ccc5ncn(C)c5c4)c4ccsc4c3-c3c(F)cc(F)cc3OCCOC)cc2C1` [Compound 403], the “% of modification” value in assay [2] (setting [3]) is on record as “A (percent of modification of PIK3CA protein ≥75%)”. For the same compound, the half-maximal inhibitory concentration (IC50) with pAKT in BT474 cells (Compounds 10-999) is less than 0.1 µM. With `C=CC(=O)N1CCc2nc(-c3nc(-c4ccc5c(c4)CCNC5)c4ccsc4c3-c3ccc(F)cc3OC)sc2C1` [Compound 87, 1-[2-[7-(4-fluoro-2-methoxy-phenyl)-4-(1,2,3,4-tetrahydroisoquinolin-6-yl)thieno[3,2-c]pyridin-6-yl]-6,7-dihydro-4H-thiazolo[5,4-c]pyridin-5-yl]prop-2-en-1-one], in assay [2] (setting [3]), the “% of modification” value is recorded as “A (percent of modification of PIK3CA protein ≥75%)”. For the same compound, in the assay on pAKT in BT474 cells (setting [4]), the concentration for half-maximal inhibition (IC50) was 0.1 to 1 µM. Turning to `C=CC(=O)N1Cc2cc(-c3nc(-c4cnn(C)c4)c4ccsc4c3-c3ccc(F)cc3OC(C)C)nn2[C@H](C)C1` [Compound 357, 1-((7R)-2-(7-(4-fluoro-2-isopropoxyphenyl)-4-(1-methyl-1H-pyrazol-4-yl)thieno[3,2-c]pyridin-6-yl)-7-methyl-6,7-dihydropyrazolo[1,5-a]pyrazin-5(4H)-yl)prop-2-en-1-one], the “% of modification” value in assay [2] (setting [3]) is listed as “A (percent of modification of PIK3CA protein ≥75%)”. The IC50 in the assay on pAKT in BT474 cells (setting [4]) was less than 0.1 µM. For the compound `C=CC(=O)N1Cc2cc(-c3nc(-c4cn(C)cn4)c4ccsc4c3-c3c(F)cc(F)cc3OCCO)nn2[C@@H](C)C1` [Compound 819], the “% of modification” value in assay [2] (setting [3]) is given as “A (percent of modification of PIK3CA protein ≥75%)”. In addition, the IC50 in the assay with pAKT in BT474 cells (Compounds 10-999) was less than 0.1 µM. With `C=CC(=O)N1CCn2nc(-c3nc(-c4ccc5c(cnn5C)c4F)c4ccsc4c3-c3c(F)cc(F)cc3OCCO)cc2[C@H]1C` (single isomer, unassigned) [Compound 1145], in assay [2] (setting [5]), the “% of modification” value is “A (percent of modification of PIK3CA protein ≥75%)”. The IC50 with pAKT in BT474 cells (Compounds 1000-1279) is less than 0.1 µM. With `C=CC(=O)N1CCn2nc(-c3nc(-c4cnn(C5CN(C)C5)c(=O)c4)c4ccsc4c3-c3c(F)cc(F)cc3OCCOC)cc2C1C` (stereo not drawn) [Compound 1035], the “% of modification” value in assay [2] (setting [5]) is on record as “A (percent of modification of PIK3CA protein ≥75%)”. Moreover, in the assay on pAKT in BT474 cells (Compounds 1000-1279), the IC50 is less than 0.1 µM.

Consider `C=CC(=O)N1CCn2nc(-c3nc(-c4cnc5c(c4)CN(C)CC5(F)F)c4ccsc4c3-c3c(F)cc(F)cc3OCCOC)cc2[C@H]1C` [Compound 1152, 1-((R)-2-((S)-7-(2,4-difluoro-6-(2-methoxyethoxy)phenyl)-4-(8,8-difluoro-6-methyl-5,6,7,8-tetrahydro-1,6-naphthyridin-3-yl)thieno[3,2-c]pyridin-6-yl)-4-methyl-6,7-dihydropyrazolo[1,5-a]pyrazin-5(4H)-yl)prop-2-en-1-one], for which the “% of modification” value in assay [2] (setting [5]) is “A (percent of modification of PIK3CA protein ≥75%)”. For the same compound, the IC50 with pAKT in BT474 cells (Homo sapiens, BT-474, Compounds 1000-1279) was less than 0.1 µM.

Take `C=CC(=O)N1Cc2cc(-c3nc(-c4cnn(CC(C)(C)O)c4)c4ccsc4c3-c3c(F)cc(F)cc3OCCOC)nn2[C@@H](C)C1` [Compound 491]: the “% of modification” value in assay [2] (setting [3]) is given as “A (percent of modification of PIK3CA protein ≥75%)”. Besides, in the assay with pAKT in BT474 cells (Compounds 10-999), the IC50 was less than 0.1 µM.

For the compound `C=CC(=O)N1CCn2nc(-c3nc(-c4cc5c(cc4OC)C(=O)NC5)c4ccsc4c3-c3c(F)cc(F)cc3OCCO)cc2C1C` (stereo not drawn) [Compound 1072], the “% of modification” value in assay [2] (setting [5]) is “A (percent of modification of PIK3CA protein ≥75%)”. Moreover, in the assay on pAKT in BT474 cells (Compounds 1000-1279), the IC50 was less than 0.1 µM.

Consider `C=CC(=O)N1CCn2nc(-c3nc(-c4ccc5c(c4)C(=O)N(C)C5)c4ccsc4c3-c3c(F)cc(F)cc3OCCO)cc2C1C` (stereo not drawn) [Compound 867], for which the “% of modification” value in assay [2] (setting [5]) is on record as “A (percent of modification of PIK3CA protein ≥75%)”. For the same compound, the IC50 in the assay with pAKT in BT474 cells (Compounds 10-999) was less than 0.1 µM.
